Reference: article PMC11106739, “Discovery and Derivatization of Tridecaptin Antibiotics with Altered Host Specificity and Enhanced Bioactivity” (ACS Chemical Biology, 2024)
Converted amounts (≈) assume the structure as drawn. Where a SMILES comes first, the peptide text is derived from it. [ ]: non-standard residue; d: D form. The star is where a group is joined. d(aIle) = CC[C@H](C)[C@@H](N)C(=O)O; dDab = NCC[C@@H](N)C(=O)O; Octanoyl = CCCCCCCC(=O)*; Dab = NCC[C@H](N)C(=O)O

Columns and labels:
S. aureus 1126387 = type: cell-based, Staphylococcus aureus; details: 1126387, 20 h
Procedure, shortened: (§1)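 MIC was scored by eye after plates incubated for 20 h at 35 °C. Wells held cation-adjusted Mueller Hinton broth, compound at 0.06 to 64 μg/mL final, and a target inoculum of 2 × 10^5 CFU/mL, following CLSI guidance.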

S. aureus ATCC 29213 [1] = type: cell-based, Staphylococcus aureus; details: ATCC 29213, 20 h
Procedure, shortened: as §1

S. aureus UAMS-1625 = type: cell-based, Staphylococcus aureus; details: S. aureus UAMS-1625 (BV18); CLSI broth dilution, cation-adjusted Mueller Hinton broth, 20 h, 35 °C, read visually
Procedure, shortened: as §1

ATCC 25922 = type: cell-based, Enterococcus faecalis; details: ATCC 25922, 20 h
Procedure, shortened: as §1

E. faecalis ATCC 29212 = type: cell-based, Enterococcus faecalis; details: ATCC 29212, 20 h
Procedure, shortened: as §1

E. faecium ATCC 51559 = type: cell-based, Enterococcus faecium; details: ATCC 51559, 20 h
Procedure, shortened: as §1

E. faecium IHMA 890472 = type: cell-based, Enterococcus faecium; details: IHMA 890472, 20 h
Procedure, shortened: as §1

A. baumannii ATCC 17978 = type: cell-based, Acinetobacter baumannii; details: ATCC 17978, 20 h
Procedure, shortened: as §1

A. baumannii HUMC1 = type: cell-based, Acinetobacter baumannii; details: HUMC1, 20 h
Procedure, shortened: as §1

A. baumannii IHMA 777621 = type: cell-based, Acinetobacter baumannii; details: IHMA 777621, 20 h
Procedure, shortened: as §1

E. coli 1214245 = type: cell-based, Escherichia coli; details: 1214245, 20 h
Procedure, shortened: as §1

E. coli 1220120 = type: cell-based, Escherichia coli; details: 1220120, 20 h
Procedure, shortened: as §1

E. coli ATCC 25922 [2] = type: cell-based, Escherichia coli; details: ATCC 25922, 20 h
Procedure, shortened: as §1

K. pneumoniae 1227947 = type: cell-based, Klebsiella pneumoniae; details: 1227947, 20 h
Procedure, shortened: as §1

K. pneumoniae 1228586 = type: cell-based, Klebsiella pneumoniae; details: 1228586, 20 h
Procedure, shortened: as §1

K. pneumoniae ATCC 13883 = type: cell-based, Klebsiella pneumoniae; details: ATCC 13883, 20 h
Procedure, shortened: as §1

P. aeruginosa 1218019 = type: cell-based, Pseudomonas aeruginosa; details: 1218019, 20 h
Procedure, shortened: as §1

P. aeruginosa 1226072 = type: cell-based, Pseudomonas aeruginosa; details: 1226072, 20 h
Procedure, shortened: as §1

P. aeruginosa PAO1 = type: cell-based, Pseudomonas aeruginosa; details: PAO1, 20 h
Procedure, shortened: as §1

S. aureus USA300 (MRSA) = type: cell-based, Staphylococcus aureus; details: USA300, 18 h
[3] = tested on: Gram-positive lipid II / S. aureus USA300 (MRSA); test: Lipid II antagonization assay; type: cell-based, Staphylococcus aureus; details: compound at 8x MIC, 5-fold molar excess of Gram-positive lipid II, MHB with 0.002% polysorbate-80, 37 °C, 18 h, resazurin, triplicates
Experimental: Laboratory Institute (CLSI) guidelines. Gram-positive lipid II, containing lysine at position 3 of the pentapeptide, was prepared by total chemical synthesis.1,2 Lipid II in 1 : 1 chloroform : methanol (v/v) was added to a polypropylene 96-well plate (5-fold molar excess compared to test antibiotics) and the organic solvent was allowed to evaporate. Oct-TriA5 and vancomycin in MHB (50 µL, 16xMIC) were added to the wells with the 5-fold molar excess of pure Gram-positive lipid II in triplicates and to the control wells without lipid II. Single colony of S. aureus USA300 (MRSA) from a fresh blood agar plate was suspended in TSB and grown to an OD600 of 0.5. The bacterial culture then was diluted in MHB with 0.002% polysorbate-80 to reach 10^6 CFU/mL and 50 µL were mixed with test compounds to achieve the final concentration of 8xMIC for all tested compounds. The plate was incubated at 37°C for 18 h with constant shaking (600 rpm) and subsequently inspected for visible bacterial growth. To visualize the viability of the indicator strain, resazurin sodium salt solution (Merck, Dorset, UK) was added to the cultures to achieve the final concentration of 0.0015% (w/v) and incubated at RT for 1 h.
Figure S4. HPLC trace showing the reinjection of purified Oct-TriD (3). The peptide eluted as a single peak at 17.263 min using the HPLC method A.
Figure S5. […]

S. aureus ATCC 29213 [4] = test: LIVE/DEAD staining (SYTO 9 / propidium iodide); type: cell-based, Staphylococcus aureus; details: S. aureus ATCC 29213, 1 × MIC, 15 min, microscopy
Experimental: (§2) This assay was performed according to a previously described procedure.[55],[56] Briefly, overnight cultures of E. coli ATCC 25922 and S. aureus ATCC 29213 were diluted to an OD600 of 0.2 in MHB and mixed with 1 × MIC of Oct-TriA1, Oct-TriA5, and Oct-TriD. Nisin and polymyxin B were used as positive controls at a concentration of 2-fold MIC. At the same time, green fluorescent nucleic acid stain SYTO 9 (excitation, 450–490 nm; emission, 500–550 nm) and red fluorescent nucleic acid stain propidium iodide (excitation, 574–599 nm; emission, 612–682 nm) (LIVE/DEAD Baclight Bacterial Viability Kit, Invitrogen) were added to the above cell suspensions. After mixing and incubating for 15 min in the dark at RT, cells were briefly sedimented via centrifugation and resuspended in fresh MHB. Then, the cell suspensions were loaded on 1.5% agarose pads and analyzed by a Zeiss Imager M2 microscope. Confocal images were obtained at 4 random locations for each sample and visualized using FIJI version 1.51H.[57]

[5] = tested on: Gram-negative ESKAPE pathogens; type: cell-based; details: 20 h
Experimental: All minimum inhibitory concentrations (MICs) were determined according to the Clinical and Standards Laboratory Institute (CLSI) guidelines. In brief, agar plates were inoculated from glycerol stocks and incubated overnight at 35 °C. Peptide DMSO stocks were dispensed into 96-well round-bottom plates using a TECAN D300e dispenser. Colistin sulfate (Sigma-Aldrich) was dissolved in water and serially diluted in a cation-adjusted Mueller Hinton broth (10 μL per well). Final concentrations of the test compounds were 0.06 to 64 μg/mL. Inocula were prepared by direct colony suspension in NaCl at 0.5 MacFarland, which was further diluted 200-fold in cation-adjusted Mueller Hinton broth for a target inoculum of 2 × 10^5 colony forming units (CFUs)/mL. 100 μL portion of the prepared inoculum was added to each well of the prepared plates containing the test compounds. Plates were sealed with parafilm and incubated for 20 h at 35 °C. Images of all plates were recorded, and MIC was assessed visually.

E. coli ATCC 25922 [6] = test: LIVE/DEAD staining (SYTO 9 / propidium iodide); type: cell-based, Escherichia coli; details: E. coli ATCC 25922, tridecaptins at 1 × MIC, polymyxin 4 μg/mL (2 × MIC), 15 min, microscopy
Experimental: as §2

Q: Which MIC (S. aureus 1126387) does the source give for `CCCCCCCC(=O)N[C@@H](C(=O)N[C@H](CCN)C(=O)NCC(=O)N[C@H](CO)C(=O)N[C@H](Cc1c[nH]c2ccccc12)C(=O)N[C@@H](CO)C(=O)N[C@@H](CCN)C(=O)N[C@H](CCN)C(=O)N[C@@H](Cc1c[nH]c2ccccc12)C(=O)N[C@@H](CCC(=O)O)C(=O)N[C@H](C(=O)N[C@@H](C(=O)N[C@@H](C)C(=O)O)[C@@H](C)CC)C(C)C)C(C)C` [Oct-TriA5] (Octanoyl-[dV][dDab]G[dS][dW]S[Dab][dDab]WEV[d(aIle)]A-OH) here?
A: The MIC was 8 µg/mL (≈ 5.13 µM).

Q: What about the MIC (S. aureus ATCC 29213 [1]) of the same molecule?
A: Its MIC is 8 µg/mL (≈ 5.13 µM).

Q: And the MIC (S. aureus UAMS-1625)?
A: Its MIC is 8 µg/mL (≈ 5.13 µM).

Q: And the MIC (ATCC 25922)?
A: The MIC was 8 µg/mL (≈ 5.13 µM).

Q: And the MIC (E. faecalis ATCC 29212)?
A: Its MIC is 8 µg/mL (≈ 5.13 µM).

Q: And the MIC (E. faecium ATCC 51559)?
A: Its MIC is 8 µg/mL (≈ 5.13 µM).

Q: What about the MIC (E. faecium IHMA 890472) of the same molecule?
A: The MIC was 8 µg/mL (≈ 5.13 µM).

Q: What about the MIC (A. baumannii ATCC 17978) of the same molecule?
A: Its MIC is 4 µg/mL (≈ 2.56 µM).

Q: And the MIC (A. baumannii HUMC1)?
A: Its MIC is 8 µg/mL (≈ 5.13 µM).

Q: And the MIC (A. baumannii IHMA 777621)?
A: The MIC was 4 µg/mL (≈ 2.56 µM).

Q: And the MIC (E. coli 1214245)?
A: The MIC was 4 µg/mL (≈ 2.56 µM).

Q: What about the MIC (E. coli 1220120) of the same molecule?
A: Its MIC is 4 µg/mL (≈ 2.56 µM).

Q: And the MIC (E. coli ATCC 25922 [2])?
A: The MIC was 2 µg/mL (≈ 1.28 µM).

Q: What about the MIC (K. pneumoniae 1227947) of the same molecule?
A: Its MIC is 4 µg/mL (≈ 2.56 µM).

Q: And the MIC (K. pneumoniae 1228586)?
A: The MIC was 4 µg/mL (≈ 2.56 µM).

Q: And the MIC (K. pneumoniae ATCC 13883)?
A: Its MIC is 4 µg/mL (≈ 2.56 µM).

Q: What about the MIC (P. aeruginosa 1218019) of the same molecule?
A: Its MIC is 4 µg/mL (≈ 2.56 µM).

Q: What about the MIC (P. aeruginosa 1226072) of the same molecule?
A: Its MIC is 8 µg/mL (≈ 5.13 µM).

Q: And the MIC (P. aeruginosa PAO1)?
A: The MIC was 16 µg/mL (≈ 10.3 µM).

Q: What about the MIC (S. aureus USA300 (MRSA)) of the same molecule?
A: The MIC was 8 µg/mL (≈ 5.13 µM).

Q: What about the “growth of S. aureus USA300 (MRSA) after addition of lipid II” value [3] of the same molecule?
A: Its value is “not inhibited”.

Q: What about the “LIVE/DEAD staining, membrane integrity of S. aureus cells” value (S. aureus ATCC 29213 [4]) of the same molecule?
A: The value was “had lysed”.

Q: And the “MICs, range over Gram-negative pathogens” value [5]?
A: Its value is 2 to 16 µg/mL.

Q: How did the “growth of S. aureus USA300 (MRSA) after addition of lipid II” value [3] turn out when `CN[C@H](CC(C)C)C(=O)N[C@H]1C(=O)N[C@@H](CC(N)=O)C(=O)N[C@H]2C(=O)N[C@H]3C(=O)N[C@H](C(=O)N[C@H](C(=O)O)c4cc(O)cc(O)c4-c4cc3ccc4O)[C@H](O)c3ccc(c(Cl)c3)Oc3cc2cc(c3O[C@@H]2O[C@H](CO)[C@@H](O)[C@H](O)[C@H]2O[C@H]2C[C@](C)(N)[C@H](O)[C@H](C)O2)Oc2ccc(cc2Cl)[C@H]1O` [vancomycin, reference compound] was run?
A: The value was “not inhibited”.

Q: With polymyxin B as the molecule, how does the “LIVE/DEAD staining, membrane integrity of E. coli cells” value (E. coli ATCC 25922 [6]) read?
A: The value was “death of half of the E. coli cells”.
